Reference: patent US4017632A, “Phenoxyacetic acid derivatives” (Centre European de Recherches Pharmacologiques C.E.R.P.H.A., priority 1975, dated 1977)

Key:
[1] = test system: urinary excretion and clearance of uric acid; experiment: Uricosuric activity in the phosphate-mannitol infused mongrel dog (renal clearance); assay type: in vivo
Experimental: The uricosuric activity of the compound of example 1 was further studied.
The uricosuric activity is determined by intravenous administration of a test compound to the phosphate-mannitol infused mongrel dog as a rapid injection at doses of 5 or 15 mg/kg. Renal clearance studies are compared against control experiments conducted in the same dogs. The urate clearance is calculated from the plasma and urinary concentrations. […] For example, compound of example 1 at a dose of 5 mg/kg i.v. increased urate excretion as a percentage of glomerular filtration rate from a value of 27% up to 40% and at a dose of 15 mg/kg i.v. increased it from 28% up to 74%.

[2] = test system: retention of phenol red in the circulation; experiment: Uricosuric activity: retention of phenol red in the circulation of the rat; assay type: in vivo; conditions: 100 mg/kg per os; for % of retention (phenol red), 15 mn: 15 min after phenol red injection; for % of retention (phenol red), 30 mn: 30 min after phenol red injection; for % of retention (phenol red), 45 mn: 45 min after phenol red injection; for % of retention (phenol red), 60 mn: 60 min after phenol red injection
Experimental: This activity was determined by the ability of the compounds to cause retention of phenol red in the circulation of the rat, method described by
Scarborough h. c. and M. C. KINNEY G. R. --
The products were administered one hour before phenol red injection to batches of 5 rats of 250-280 g; anesthetized with ether, the animals received an I.V. injection of 1 cm3 of a 1% phenol red solution. Blood samplings were made 15, 30, 45 and 60 minutes after injection. The pink colour develop after addition to the plasma of an N/10 aqueous solution of sodium hydroxide.
For instance the compounds of examples 5 and 1, and benziodarone give the following results for a dosis of 100 mg/kg per os.

[3] = Acute toxicity per os in mice; conditions: mouse, in vivo, po; for LD50 at 48 h: male mice (Swiss C.D), per os, mortality after 48 hours, read-out: LD 50 per os
Experimental: The compounds were administered in the usual way to lots of 10 male mice (Swiss C.D) of average weight 20 g. Mortality was assessed after 48 hours for toxicity per os.

[4] = test system: diuresis; experiment: Diuretic activity in mice; assay type: in vivo
Experimental: The activity is determined on mice. The ratio R of the mean values of diuresis obtained for the treated animals to the mean values for control animals are determined.

SMILES	urate excretion as a percentage of glomerular filtration rate ([1]; 5 mg/kg i.v., increased from a value of 27%) [%]	urate excretion as a percentage of glomerular filtration rate ([1]; 15 mg/kg i.v., increased from 28%) [%]	% of retention (phenol red), 15 mn [2] [%]	% of retention (phenol red), 30 mn [2] [%]	% of retention (phenol red), 45 mn [2] [%]	% of retention (phenol red), 60 mn [2] [%]	LD50 at 48 h [3] [mg/kg]	ratio R of mean diuresis of treated animals to control animals ([4]; 100 mg/kg P.O.)	LD50 ([3]; P.O., ethacrynic acid, given in the diuretic activity section, read-out: DL 50 P.O.) [mg/kg]	ratio R of mean diuresis of treated animals to control animals ([4]; 20 mg/kg P.O.)
O=C(O)COc1ccc(C(O)c2cccs2)c(Cl)c1Cl (centres unmarked) [Example 1, 2,3-dichloro-4-(2-thienyl-hydroxy-methyl)-phenoxy-acetic acid]	40	74	51	44	31	28	1000	1.6	–	–
O=C(O)COc1c(Br)cc(C(O)c2cccs2)cc1Br (centres unmarked) [Example 5, 2,6-dibromo-4-(2-thienyl-hydroxy-methyl)-phenoxy-acetic acid]	–	–	68	123	105	58	> 1000	–	–	–
CCc1oc2ccccc2c1C(=O)c1cc(I)c(O)c(I)c1 [benziodarone, reference compound]	–	–	37	50	53	18	1400	–	–	–
C=C(CC)C(=O)c1ccc(OCC(=O)O)c(Cl)c1Cl [ethacrynic acid, reference compound]	–	–	–	–	–	–	–	–	600	2.4
